Measurements reported in US10752921B2, “Enzymes and methods for styrene synthesis” (Phytogene, Inc., priority 2012, dated 2020).
“Also recorded” adds a separate entry of the source.

T1: FDC1 (Saccharomyces cerevisiae, UniProt Q03034)
T1 construct: N-terminal 6xHis leader of vector pDEST17 (own knowledge of the vector); made in house; host or cells: E. coli BL21 (DE3)
T1 sequence (Q03034 1-503): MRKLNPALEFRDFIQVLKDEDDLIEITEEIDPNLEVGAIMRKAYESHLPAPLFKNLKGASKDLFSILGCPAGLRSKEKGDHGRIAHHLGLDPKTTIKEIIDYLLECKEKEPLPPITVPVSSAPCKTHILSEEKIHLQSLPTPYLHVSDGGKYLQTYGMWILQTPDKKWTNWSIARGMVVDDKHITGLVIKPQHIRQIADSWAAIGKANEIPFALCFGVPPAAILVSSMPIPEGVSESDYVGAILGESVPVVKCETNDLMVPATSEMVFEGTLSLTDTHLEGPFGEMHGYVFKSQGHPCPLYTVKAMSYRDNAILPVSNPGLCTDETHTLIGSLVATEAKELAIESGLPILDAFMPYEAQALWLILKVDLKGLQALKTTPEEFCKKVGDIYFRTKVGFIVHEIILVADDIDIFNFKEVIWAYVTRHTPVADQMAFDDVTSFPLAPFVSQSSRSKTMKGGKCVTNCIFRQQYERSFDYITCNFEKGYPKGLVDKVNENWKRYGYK


target: T1, FDC1; test: Effect of metal ions on FDC1 activity; format: biochemical; conditions: 10 mM metal ion, 1.4 mM tCA, purified FDC1, 5 minutes at 30° C.
Procedure: (§1) After the reaction, 1 mL of propanol was added to the reaction mixtures to solubilize styrene. The experimental control used the same conditions except the reaction mixture contained no metal ions. The experimental negative control used the same conditions except the reaction mixture contained no substrate.
as §1, with “ions or EDT A.” for “ions.”

Row | Molecule | effect of metal ions on FDC1 activity
1 | [Ca+2].[Cl-].[Cl-] [Ca^2+, CaCl2] | increased the activity of FDC1
2 | [Cl][Fe]([Cl])[Cl] [Fe^3+, FeCl3] | increased the activity of FDC1
3 | O=S(=O)([O-])[O-].[Mg+2] [Mg^2+, MgSO4] | increased the activity of FDC1
4 | O=S(=O)([O-])[O-].[Zn+2] [Zn^2+, ZnSO4] | increased the activity of FDC1

test system: styrene production; test: Fermentation of E. coli with PAL2-FDC fusion with or without srpABC pump, Phe as substrate; format: cell-based; conditions: control contains only the fusion of PAL2 and FDC
Text: Some bacteria have developed multiple mechanisms to adapt unfavorable conditions. For example, Pseudomonas strains have about three strategies for addressing organic solvent toxicity, i.e. modified membrane structure, active efflux pumps, and enzymatic detoxification. Here, a recombinant E. coli host expressing an efflux pump (called solvent-resistant-pump) was produced. The pump, a member of the ABC-transporter family, is composed of three subunits, srpA, periplasmic linker; srpB, inner membrane transporter; and srpC, out-membrane channels. The full-length of the srpABC pump sequence (˜6 kb) was cloned from the genomic DNA of P. putida. The clone was first inserted to pENTR vector with Zeocin resistance and then to E. coli expression vector pCONA-2-DEST with Kanamycin resistance.
Finally, the pump was transformed to the E. coli strain BL21 (DE3) containing the fusion of PAL2 and FDC which is resistant to Ampicillin. After the test expression of 5 clones in flasks, one clone was chosen for further experiment with fermenter. Fifty milliliters of overnight culture were inoculated in 1.5 L LB medium containing appropriate antibiotics. When cells reach an OD600˜0.8, 5 mM of IPTG was added to the culture for induction. […] Samples from the overnight fermentation (˜16 hrs) were taken and analyzed by HPLC in coupling with an Acclaim RSLC C18 column and detected at 280 nm. […]

Row | Molecule | styrene production with ABC-transporter compared to control without
5 | ABC-transporter: solvent-resistant efflux pump srpABC cloned from P. putida, subunits srpA, srpB, srpC | significantly increased; also recorded: enhanced nearly four times

target: T1, FDC1; test: Substrate specificity of FDC1; format: biochemical; conditions: 0.2 mM substrate, 0.5 mg purified FDC1, 5 minutes at 30° C., pH 6.5
Procedure: The reaction mixtures were then incubated for 5 minutes at 30° C. After the reaction 1 mL of propanol was added to the reaction mixtures to solubilize styrene. The experimental negative control used the same conditions except the reaction mixture contained no substrate.

Row | Molecule | activity compared with that of tCA (relative activity)
6 | COc1ccc(OC)c(C=CC(=O)O)c1 [2,5-dimethoxycinnamic acid] | did not show any activity
7 | O=C(O)C=Cc1ccccc1O [2-hydroxycinnamic acid] | did not show any activity
8 | Cc1ccccc1C=CC(=O)O [2-methylcinnamic acid] | 35%
9 | COc1ccc(C=CC(=O)O)cc1OC [3,4-dimethoxycinnamic acid] | did not show any activity
10 | O=C(O)C=Cc1cccc(O)c1 [3-hydroxycinnamic acid] | did not show any activity
11 | O=C(O)C=Cc1ccc(O)cc1 [4-hydroxycinnamic acid] | 68%
12 | COc1cc(/C=C/C(=O)O)ccc1O [ferulic acid] | 57%
13 | O=C(O)/C=C/c1ccccc1 [t-cinnamic acid, trans-cinnamic acid] | 100%

test system: styrene production; test: Styrene production by FDC1 mutants from tCA (colorimetric screening, confirmed by HPLC); format: cell-based; conditions: E. coli cells, tCA 1 g/L, 30° C. for 4 hours
Procedure: Saturation mutagenesis allows the change of one amino acid to 19 other alternative amino acid residues. […] The codon NNK has 32-fold degeneracy and encodes all 20 amino acids without rare codons. The QuikChange PCR products were examined by agarose gel electrophoresis and then 15 μl of PCR products were digested with 1 μl Dpnl (New England Biolabs) at 37° C. for 4 hours to remove the template plasmid. Aliquots of (2 μl) digestive products were transformed into BL21-Gold (DE3) competent cells (STRATAgene, CA) and inoculated on Luria-Bertani (LB) agar plates containing kanamycin. The quality of the library by DNA sequencing was confirmed. The library covers 90% of mutagenesis (17 mutants out of 19). To cover 100% (19 out of 19 mutant), we screened 150 mutants for each site.
The transformants (Example II.2) were inoculated in 96-well plates (NUNC, Roskilde, Denmark) containing 100 μl LB broth per well and incubated at 37° C., overnight. The cultures were then mixed with equal amount of 50% glycerol and stored at −80° C. as the master plate. An aliquot of 10 μl culture was inoculated in 2 ml deep-well plates (USA scientific) with 1 ml TB broth per well and incubated at 37° C. until the OD600 reached 1.0. The cultures were then induced by 0.2 mM IPTG and incubated at 18° C. for 20 hours with shaking at 250 rpm.
Cells were harvested and suspended with 0.25 ml PBS buffer at pH 7.0 and the substrate (tCA) was added at a final concentration of 1 g/L. The culture was incubated at 30° C. for 4 hours and the volatile product styrene was collected by using 96 well STRATA-X® reversed phase plate containing 10 mg polymer based resin (Phenomenex) on top of the culture plate (FIG. 19). To avoid styrene vapor diffusion, 96-square well silicone sealing mats with pre-slit were used between 96-well culture plate and 96 well STRATA-X® reversed phase plate. The product was collected by 200 μl propanol for each well and the amount of product was measured by colorimetric method.
Various chemicals were tested as an indicator for styrene detection, including NBP (4-nitrobenzyl-pyridine) as a preferred indicator. Styrene was mixed with cytochrome P450 BM-3 in 50 mM phosphate buffer pH 8.0. The styrene oxidation reaction was started by adding 0.2 mM NADPH, and the reaction mixture was incubated at room temperature for 5 minutes with shaking. The NBP solution was added to the mixture and incubated at room temperature for further 5 minutes with shaking which gives white precipitate. The tube or plate containing reaction mixtures were heated at 70° C. for 30 minutes and chilled on ice for 5 minutes. After adding Dimethylformamide (150 μl) and 25 μl of 1M K2CO3, the reaction mixture gave blue color that can be measured spectrophotometrically at 600 nm immediately. The […] of NBP reacts with the oxirane ring of styrene oxide to yield a blue chromophore a blue color that can be monitored spectrophotometrically at 600 nm.
The mutants showing higher activity were confirmed by HPLC using an ACQUITY UPLC BEH C18 column (1.7-μm, 2.1×50-mm, Waters, USA). The samples were resolved in 30% acetonitrile (A) with an increasing concentration gradient of acetonitrile (B) for 1 min, 95%; then to 1 min, 30%; at a flow rate of 1 ml/min. UV absorption was monitored at 254-, 280-, and 310-nm. The changed amino acid residues in the mutants showing the higher activity were confirmed by DNA sequence.

Row | Molecule | amount of styrene compared to that of wild type (in words) | styrene produced compared to wild type [times]
14 | K190L (protein, listed as Saccharomyces cerevisiae) MRKLNPALEFRDFIQVLKDEDDLIEITEEIDPNLEVGAIMRKAYESHLPAPLFKNLKGASKDLFSILGCPAGLRSKEKGDHGRIAHHLGLDPKTTIKEIIDYLLECKEKEPLPPITVPVSSAPCKTHILSEEKIHLQSLPTPYLHVSDGGKYLQTYGMWILQTPDKKWTNWSIARGMVVDDKHITGLVILPQHIRQIADSWAAIGKANEIPFALCFGVPPAAILVSSMPIPEGVSESDYVGAILGESVPVVKCETNDLMVPATSEMVFEGTLSLTDTHLEGPFGEMHGYVFKSQGHPCPLYTVKAMSYRDNAILPVSNPGLCTDETHTLIGSLVATEAKELAIESGLPILDAFMPYEAQALWLILKVDLKGLQALKTTPEEFCKKVGDIYFRTKVGFIVHEIILVADDIDIFNFKEVIWAYVTRHTPVADQMAFDDVTSFPLAPFVSQSSRSKTMKGGKCVTNCIFRQQYERSFDYITCNFEKGYPKGLVDKVNENWKRYGYK | significantly higher amount of styrene | 
15 | R1751 (protein, listed as Saccharomyces cerevisiae) MRKLNPALEFRDFIQVLKDEDDLIEITEEIDPNLEVGAIMRKAYESHLPAPLFKNLKGASKDLFSILGCPAGLRSKEKGDHGRIAHHLGLDPKTTIKEIIDYLLECKEKEPLPPITVPVSSAPCKTHILSEEKIHLQSLPTPYLHVSDGGKYLQTYGMWILQTPDKKWTNWSIAIGMVVDDKHITGLVIKPQHIRQIADSWAAIGKANEIPFALCFGVPPAAILVSSMPIPEGVSESDYVGAILGESVPVVKCETNDLMVPATSEMVFEGTLSLTDTHLEGPFGEMHGYVFKSQGHPCPLYTVKAMSYRDNAILPVSNPGLCTDETHTLIGSLVATEAKELAIESGLPILDAFMPYEAQALWLILKVDLKGLQALKTTPEEFCKKVGDIYFRTKVGFIVHEIILVADDIDIFNFKEVIWAYVTRHTPVADQMAFDDVTSFPLAPFVSQSSRSKTMKGGKCVTNCIFRQQYERSFDYITCNFEKGYPKGLVDKVNENWKRYGYK | significantly higher amount of styrene | 1.5
16 | K190H (protein, listed as Saccharomyces cerevisiae) MRKLNPALEFRDFIQVLKDEDDLIEITEEIDPNLEVGAIMRKAYESHLPAPLFKNLKGASKDLFSILGCPAGLRSKEKGDHGRIAHHLGLDPKTTIKEIIDYLLECKEKEPLPPITVPVSSAPCKTHILSEEKIHLQSLPTPYLHVSDGGKYLQTYGMWILQTPDKKWTNWSIARGMVVDDKHITGLVIHPQHIRQIADSWAAIGKANEIPFALCFGVPPAAILVSSMPIPEGVSESDYVGAILGESVPVVKCETNDLMVPATSEMVFEGTLSLTDTHLEGPFGEMHGYVFKSQGHPCPLYTVKAMSYRDNAILPVSNPGLCTDETHTLIGSLVATEAKELAIESGLPILDAFMPYEAQALWLILKVDLKGLQALKTTPEEFCKKVGDIYFRTKVGFIVHEIILVADDIDIFNFKEVIWAYVTRHTPVADQMAFDDVTSFPLAPFVSQSSRSKTMKGGKCVTNCIFRQQYERSFDYITCNFEKGYPKGLVDKVNENWKRYGYK | significantly higher amount of styrene | 
